# Source: a melting point compilation (Tetko et al.; mined from patent text by program, amines drawn as free bases though some values may be those of a salt)
row,SMILES,melting point
1,O=C(C(=CO)c1ccccc1)c1ccccc1,110 to 114 °C
2,CC(C)Sc1ccc(NC(=O)c2cc(Cl)ccc2NS(=O)(=O)c2ccc(Cl)cc2)cc1,168 to 169 °C
3,CCOC(=O)c1nnnn1Cc1ccccc1,58 to 61 °C
4,CC(=O)Nc1ccccc1-c1ccc(F)cc1,123 to 124 °C
5,O=C(c1ccccc1)C(O)CC(Cl)CCCl (stereo not drawn),39 to 41 °C
6,CON=Cc1ccc(-c2cc(F)cc(F)c2NC(=O)c2c(C)nn(C)c2F)cc1,164 to 167 °C
7,COC(=O)CC/C(C)=C/Cc1c(NC(=O)N(C)C)c2c(c(C)c1OC)COC2=O,116 to 118 °C
8,CCC1(c2cccc(O)c2)CNCC(C)O1 (stereo not drawn),75 to 105 °C
9,CC12CCC3C(CC=C4CC(O[Si](C)(C)C(C)(C)C)CCC43C)C1CCC2=O (stereo not drawn),146 to 148 °C
10,C=C(C)C(=O)OCCCOc1ccc(-c2cc(OC(=O)C(=C)C)cc(-c3ccc(OCCCOC(=O)C(=C)C)cc3)c2)cc1,49 °C
11,c1ccc2c3c([nH]c2c1)CCS3,152 to 155 °C
12,COc1cccc(Oc2cc(-c3ccc(C(F)(F)F)cc3)ccn2)c1,77.5 to 79.6 °C
13,CN1CC(=O)N(C(c2ccccc2)c2ccccc2)C1=S,139 to 141 °C
14,CC(C)N(Cc1ccccc1)C(=O)C(=O)N1CCN(c2ccccc2C(C)(C)C)CC1,65 to 68 °C
15,Cc1ccc2[nH]ncc2c1N,197 to 200 °C
16,COc1ccc(S(=O)(=O)N(CCC(F)(F)C(F)F)c2ccccc2/C=C/c2ccncc2)cc1,124 to 126 °C

row,SMILES,melting point
1,O=C(c1ccc(OC[C@H](O)CO)cc1)c1ccc([N+](=O)[O-])cc1,104 to 105 °C
2,CC(C#N)c1ccc2nc(N)sc2c1 (stereo not drawn),165 °C
3,O=[N+]([O-])c1cccc(Nc2nccc(-c3ccccn3)n2)c1,213 to 219 °C
4,C[Si](C)(C)c1cccc(Cl)c1C(=O)O,129 to 131 °C
5,COc1cccc2c(Cc3nc(CCc4ccccc4)co3)coc12,69 to 70 °C
6,COC(=O)C(CCCCNC(=O)c1ccc(N)cc1)n1c2ccccc2c2ccccc21 (stereo not drawn),90 to 91 °C
7,COc1ccc(/C=C/C(=O)C2C(=O)CC(c3ccc(OC)cc3)C([N+](=O)[O-])C2c2ccc(OC)c(OC)c2)cc1 (stereo not drawn),126 to 128 °C
8,Fc1ccc(Nc2c3ccccc3nc3ccccc23)cc1,184 to 196 °C
9,OCc1cc2cccc(Br)c2s1,82 to 83 °C
10,COC(=O)c1ccc(C=CC(=O)C=Cc2ccc(C(=O)OC)cc2)cc1,206 to 210 °C
11,CC(C)(C)c1nnc(NN=Cc2ccccc2)s1,195 to 196 °C
12,COC(=O)CCC(C)C1CCC2C3CCC4CCCCC4(C)C3CCC12C (stereo not drawn),87 °C
13,O=C(SCC(Cc1ccccc1)C(=O)O)c1ccccc1 (stereo not drawn),99 to 100 °C
14,Cc1cc(-c2cnn3c(C(F)(F)F)cc(-c4ccc(OCC(F)(F)F)c(C(F)(F)F)c4)nc23)cc(C)n1,229 °C
15,CCN(c1nc(C)cc(C(=O)c2ncc[nH]2)n1)c1ccc(C(C)C)cc1Br,75 to 76 °C

# The next lines start with the values.
row,melting point,SMILES
1,82 to 84 °C,CC(C)(C)c1ccc2c(c1)[C@H]1Cc3ccccc3[C@@]1(C)N2 (relative stereo)
2,125 to 126 °C,CCOC(=O)c1c(CCl)nc2sc3c(c2c1-c1ccc(OC)c(OC)c1)CN(C(=O)OCc1ccccc1)CC3
3,> 300 °C,CC1SC(=O)NN=C1c1ccc2c(c1)C(=NNC(=O)c1ccccn1)C(=O)N2 (stereo not drawn)
4,278 to 279 °C,COc1ccc2c(=O)sc(C(=O)O)cc2c1
5,173 to 174 °C,CCn1c(C(C)NS(=O)(=O)c2ccc(Cl)c(Cl)c2)cnc1Sc1ccc(C)cc1 (stereo not drawn)
6,164 to 165 °C,NC(=O)c1cnc2c(N)cccc2c1
7,240 to 245 °C,OCc1nc2n(n1)-c1cccnc1N(c1ccc(Cl)cc1)C2
8,221 °C,O=C(CC(=O)Nc1ccc2c(c1)NC(=O)C2)Nc1ccc(F)cc1
9,154 to 156 °C,CCCc1nc2c(N)nc3ccccc3c2n1CCCC(=O)OCC
10,75 to 77 °C,CC(C)C(=O)c1ccc(N2CCOCC2)cc1
11,168 to 170 °C,CN1CC(c2ccc(S(C)(=O)=O)cc2)=C(c2cccc(Cl)c2)C1=O
12,235 °C,NC1=NS(=O)N=C1NCCCOc1cccc2c(=O)[nH]ccc12 (stereo not drawn)
13,215 to 218 °C,Cc1nc(-c2ccc(N3CC(C(=O)O)OC3=O)cc2)no1 (stereo not drawn)
14,136 °C,Fc1ccc(Cn2c(CC3CCN(Cc4ccccc4)CC3)nc3cncnc32)cc1
15,220 °C,Cc1ccc2c(c1)C=Cc1cc(C)ccc1C2c1cn(-c2cc(NCC(=O)Nc3nc(CC(=O)O)cs3)nc(N(C)C)n2)c(=O)[nH]c1=O
16,60 °C,CC(C)=CCOC1=CC(=O)c2ccccc2C1=O
17,70 to 72 °C,Cc1cc2c(c3occ(-c4ccc(C(C)C)cc4)c13)CCC2
18,238 to 241 °C,Cn1cc(C2=C(c3csc4ccccc34)C(=O)NC2=O)c2ccccc21
19,163 to 165 °C,O=C(CCCCl)c1cc2c(s1)C(=O)NCCC2
20,238 to 239 °C,O=C(OCc1ccccc1)N1CCc2c(sc3nc(CN4C(=O)CCC4=O)c(Cl)c(-c4ccc(OCc5ccccc5)cc4)c23)C1
21,201 °C,CN1CCC(OC(c2cccc(O)c2)c2nc3ccccc3s2)CC1 (stereo not drawn)

row,melting point,SMILES
1,196 to 199 °C,CSc1ccc(NC(=O)C2C(=O)N(c3ccccc3)N=C2C)cc1 (stereo not drawn)
2,222 to 224 °C,COc1nc(NCn2nnc3ccccc32)nc(N(C)C)n1
3,216 °C,Nc1cc(Cl)c(S(N)(=O)=O)cc1N
4,174 to 176 °C,CN=C(ON1C(=O)c2ccccc2C1=O)c1ccccc1
5,114 to 115 °C,O=Cc1cc2c(cc1O)OCCO2
6,196 to 198 °C,CC(C)C(S)C(=O)NC1(C(=O)NC(Cc2ccc(-c3ccc(F)cc3)cc2)C(=O)O)CCCC1 (stereo not drawn)
7,239 to 242 °C,CS(=O)(=O)NCCn1c(CO)nc2c(N)nc3cccnc3c21
8,134 to 137 °C,COc1ccccc1N1CCN(CCCNC(=O)c2cccc3c(=O)c(C)c(-c4cccnc4)oc23)CC1
9,100 to 103 °C,CC1(C)CC(=O)c2c(-c3ccccc3)sc(C#N)c2C1
10,216 to 218 °C,O=C1c2cc3nnn(C4CCC4)c(=O)c3cc2OC2CCCN12 (stereo not drawn)
11,236 °C,O=C1c2nccnc2C(O)N1c1ccc(Cl)cn1 (stereo not drawn)
12,114 to 116 °C,CSC(=S)N1Cc2[nH]c3ccccc3c2CC1CO (stereo not drawn)
13,264 °C,O=c1[nH][nH]c(=O)c2c(O)c3cc([N+](=O)[O-])ccc3nc12
14,183 to 184 °C,CC1(C)COc2ccc(C[C@H]3NC(=O)O[C@H]3c3cccc(Cl)c3)cc21 (racemic)
15,50 to 53 °C,C=CCOC(=O)c1ccc(N=C(SC)c2ccc(OC)c(C34CC5CC(CC(C5)C3)C4)c2)cc1
16,203 to 205 °C,O=C(O)Cn1cccc(O)c1=O
17,58 °C,CC1(C(=O)Nc2ccc(OC(=O)Cc3cccs3)c(Cl)c2Cl)CCCCC1
18,142 °C,O=C(Nc1ccccn1)Nc1cccc2c1C1CCCCN1C2=O (stereo not drawn)
19,239 to 241 °C,CCc1ccc(C(=O)Oc2ccc(C(=O)O)cc2)cc1C12CC3CC(CC(C3)C1)C2
20,171 to 173 °C,COc1cc2c(Nc3ccc(Cl)cc3F)ncnc2cc1OCCNC1CCCC1
21,229 to 231 °C,COc1cc2c(cc1OC)-c1c(C(N)=O)c(-c3cc(C)c(O)c(C)c3)c(C)n1CC2
